The text below walks through data of patent US20080300178A1, “Method For Treating Huntington's Disease by Inhibiting Dephosphorylation of Huntingtin at S421” (Insitut Curie, priority 2006, published 2008).

Entries after “also recorded” stand apart in the source; their conditions may differ.

For data set [1], the system named is BDNF-containing vesicles transport. Put plainly: BDNF-containing vesicle transport in 109Q/109Q cells (videomicroscopy). It counts as cell-based, mouse. The conditions noted are these: IGF-1 treatment. On the procedure:
(§1) Videomicroscopy Experiments and Analyses. For videoexperiments rat primary cortical neurons, +/+, and 109Q/109Q cells established from Hdh^Q111 knock-in mouse were prepared, cultured and transfected as previously described (Gauthier et al., 2004; Humbert et al., 2002; Saudou et al., 1998; Trettel et al., 2000). In some cases, primary cultures of cortical neurons are electroporated with the rat neuron Nucleofector® kit according to the supplier's manual (Amaxa, Cologne). Forskolin ([…]; Sigma) and IBMX ([…]; Sigma) were added to the cultures 5 hours after transfection.
(§2) Videomicroscopy experiments were done two or four days after transfection. Cells were co-transfected with BDNF-eGFP and various constructs of htt or the corresponding empty vectors with a DNA ratio of 1:4. Live videomicroscopy was carried out using an imaging system previously detailed (Gauthier et al., 2004). Cells were grown on glass coverslip that was mounted in a Ludin chamber. The microscope and the chamber were kept at 37° C. (33° C. for knock-in cells). Stacks of 10-15 images with a Z-step of 0.3 μm were acquired with a 100× PlanApo N.A. 1.4 oil immersion objective coupled to a piezo device (PI). Images were collected in stream mode using a Cool Snap HQ camera (Ropper Scientific) set at 2×2 binning with an exposure time of 50 to 100 ms (frequency of 2). […]

Data set [2] shares this test system. Put plainly: BDNF-containing vesicle transport in primary cortical neurons expressing FL-htt-75Q (videomicroscopy). It counts as cell-based, rat. To be noted: IGF-1 treatment. On the procedure: as §1, §2
Data set [3] has as its target GST-huntingtin (amino acids 384 to 467 of human huntingtin fused to GST), before phosphorylation (UniProt P42858).
Data set [4] concerns endogenous huntingtin S421 phosphorylation. The data set can be described thus: Phosphorylation of endogenous huntingtin at S421 in Jurkat T cells (Western blot). In kind it is cell-based, human. The conditions noted are these: ionomycin 2.5 μM. On the procedure: (§3) Cell culture, transfection and drug treatments. Primary cultures of striatal neurons were prepared from E17 Sprague Dawley rats and transfected at 4 days in vitro by a modified calcium phosphate technique (Saudou et al., 1998). Mouse neuronal cells derived from wildtype huntingtin mice (neuronal cells, +/+) and from Hdh^Q109 knock-in mice (109Q/109Q) were cultured as previously described (Trettel et al., 2000) and transfected with Lipofectamine 2000 (Invitrogen, Breda, The Netherlands). When cotransfected (FIG. 3A), the ratio 480-17Q/Akt/CaNA-ΔCaM/CaNB was 1:0.5:1:1. Human HEK 293 cells were cultured in DMEM supplemented with 10% bovine calf serum (BCS) and were transfected by the calcium phosphate technique. SHSY-5Y cells and Jurkat T cells were grown in RPMI supplemented with 10% BCS. Jurkat T cells were transferred to tyrodes buffer (137 mM NaCl, 3 mM KCl, 20 mM Hepes, 2 mM MgCl2, 1 mM CaCl2, 5.6 mM glucose, 0.3 mg/ml BSA; 4×10^6 cells/ml) prior addition of FK506 (1 μM) and/or ionomycin (2.5 μM).
(§4) Western blot analysis. After transfection/incubation with drugs, cells were washed with ice cold phosphate-buffered saline prior to scraping and lysis. […] Quantification of the signal was performed by densitometric scanning of the film using ImageJ software.
(In western blotting, separated proteins are transferred to a membrane and probed.)

Data set [5] shares this test system. The data set can be described thus: Immunofluorescence of phospho-S421-huntingtin in SHSY-5Y cells transfected with wild-type CaNA/CaNB. It counts as cell-based, human. The conditions noted are these: 1 μM ionomycin, 15 min. How it is done: Immunofluorescence experiments. SHSY-5Y cells were grown on uncoated glass coverslips, transfected with wild-type CaNA/B for 24 hours and treated for 15 min with 1 μM ionomycin (Sigma) or left untreated. Cells were fixed with 4% paraformaldehyde-PHEM buffer for 20 min (in mM: PIPES, 120; HEPES, 50, EGTA, 20; Mg-acetate 4) and incubated with antiphospho-S421-huntingtin-763 (1:100) and anti-CaNA (1:200; Cat#C1956, Sigma) antibodies. Pictures were captured with a three-dimensional deconvolution imaging system as previously described (Gauthier et al., 2004). Mean fluorescence intensity of the phospho-S421 signal was next quantified using Metamorph software (Universal Imaging Corp, Princeton, N.J., USA). For each pair of cells (transfected/non transfected), signal from the transfected cell was standardized by giving a value of 100 to the non-transfected cell. Only non-mitotic cells of the same approximate size were considered. More than 30 cells in total were analyzed in two independent experiments.

Data set [6] concerns the target GST-huntingtin (amino acids 384 to 467 of human huntingtin fused to GST), phosphorylated at S421 by Akt (UniProt P42858).
The subject of a further data set is Parkinson's disease. To be noted: cited from earlier work.
Data set [7] deals with endogenous huntingtin S421 phosphorylation. The data set can be described thus: Phosphorylation of S421 in primary striatal neurons (Western blot). It counts as cell-based. The conditions noted are these: rat striatal neurons, 1 μM FK506. On the procedure: as §3, §4

Turning to “IGF-1: IGF-1, activator of the IGF-1/Akt pathway”, in data set [1], the “pausing time of BDNF-containing vesicles” value is given as “decreasing pausing time; also recorded: decreases pausing time” and the “velocity of BDNF-containing vesicles” value is “statistically increasing velocity; also recorded: increases velocity”. In data set [2], the “mean velocity of BDNF-containing vesicles” value is “statistically significant increase in the velocity of BDNF vesicles; also recorded: significantly increases the mean velocity” and the “pausing time of BDNF-containing vesicles” value was “decreased the pausing time; also recorded: decreases their pausing time”.
Turning to recombinant Akt, the “phosphorylation of S421 (in vitro kinase assay, immunoblot)” value in data set [3] is “resulting in the phosphorylation of GST-huntingtin at S421”.
As to `C[C@H](CCC(=O)O)C[C@H](C)C[C@H](C)C(=O)/C=C(\O)[C@H](C)C[C@H](C)C/C=C/[C@@H](C)[C@@H](O)[C@@H](C)[C@@H](O)C[C@@H]1CC[C@@](C)([C@H]2CC[C@@](C)([C@@H](C)O)O2)O1` [ionomycin], in data set [4], the “S421 phosphorylation after ionomycin” value is “rapid dephosphorylation of huntingtin on S421”. For the same compound, the “huntingtin S421 phosphorylation (mean fluorescence intensity)” value in data set [5] is recorded as “reduction of huntingtin phosphorylation at S421”; in data set [5] (listed as Ionomycin), “decreased huntingtin S421 phosphorylation”.
For the compound “purified calcineurin (native protein isolated from bovine brain)”, the “dephosphorylation of S421 (immunoblot with the anti-phospho-huntingtin-S421-763 antibody)” value in data set [6] is “calcineurin dephosphorylates S421 of huntingtin in vitro in a time and dose-dependent manner”.
Take `CCC(C)(C)C(=O)C(=O)N1CCC[C@H]1C(=O)OCCCc1cccnc1` [GPI-1046]: the “outcome of clinical trials” value in the data set on Parkinson's disease was “have failed”.
With `C=CC[C@@H]1/C=C(\C)C[C@H](C)C[C@H](OC)[C@H]2O[C@@](O)(C(=O)C(=O)N3CCCC[C@H]3C(=O)O[C@H](/C(C)=C/[C@@H]3CC[C@@H](O)[C@H](OC)C3)[C@H](C)[C@@H](O)CC1=O)[C@H](C)C[C@@H]2OC` [FK506], the “time for which S421 phosphorylation remained sustained” value in data set [7] is “at least 6 hours”.
